Bridge positions count the residues as written; N and C are the ends. Ends that are not written are not given here.
Legend:
[1] = tested on: lymphocyte proliferation in the human MLR; format: cell-based; conditions: for effect on the human MLR in combination with CTLA-4Ig: CTLA-4Ig spiked in at 0.5 μg/ml (FIG. 8); for Human MLR (ability to inhibit lymphocyte proliferation, cpm): peptide 12.5 to 100 μM, assays of 1/24, 1/31, 3/6, 4/17, 5/2, one symbol per assay
Procedure: Whole blood from donors was obtained from Interstate Blood Bank, Memphis, Tenn. Blood specimens were handled in a biosafety level 2 containment facility as recommended for potentially infectious blood specimens in the CDC/NIH manual Biosafety in Microbiological and Biomedical Laboratories; 3rd edition, 1993, page 10. Peripheral blood mononuclear cells (PBMC) were separated from red blood cells and granulocytes by ficoll-hypaque purification. Whole peripheral blood was diluted 1:2 in PBS and 30 ml was overlayed onto 15 ml of ficoll-hypaque in 50 ml polypropylene tubes. The tubes were spun at 400×g for 30 min at 25° C. Following centrifugation, the interface between the upper plasma layer and the lower ficoll layer was collected, cells washed in RPMI-1640 2×, and viable counts determined using trypan blue. Cells to be used as responders in the assay were stored on ice until mitomycin C treatment of stimulator cells was completed.
PBMC, isolated as described above, to be used as stimulators in the assay were adjusted to 2-4×10^6 cells/ml in complete medium (RPMI 1640 containing 10% heat-inactivated human AB serum, 2 mM glutamine, 50 μM 2-mercaptoethanol and 100 U/ml penicillin-100 μg/ml streptomycin), and treated with mitomycin C (25 μg/ml) for 30 min in a 37° C. water bath. Following treatment, cells were washed with S volumes of complete medium 3×, and viable counts determine using trypan blue. To set up autologous stimulation controls some responder cells were also treated with mitomycin C as mentioned above.
Purified CTLA-4Ig fusion protein was produced, as described in Steurer et al. 1995, from a NS-1 cell line kindly donated by Dr. T. Strom (Beth Israel Hospital, Boston, Mass.) as a 1 mg/ml solution in sterile PBS. The protein was stored frozen at −80° C. Upon thawing, the aliquot was stored at 4° C. Purified peptides were lyophilized according to known procedures. Peptides were reconstituted in sterile PBS, pH 7.4 at 2 mM concentration, aliquoted in microfuge cubes and stored frozen at −20° C. For the assay, an aliquot of the peptide was thawed and diluted to 200 μM in complete medium.
For the one-way allogeneic mixed lymphocyte response (MLR) assay, responder cells were plated at 10^6 cells/well, and stimulator cells at 5×10^4 cells/well in 96-well round bottom plates. Cells were incubated with serial dilutions of the anti-CD4 Ab Leu 3A (1 μg/ml-0.06 μg/ml) in triplicate, or an isotype-matched control Ab. Cyclosporin A at 1 μg/ml was used as an additional control.
CTLA-4 Ig was serially diluted an.4 tested from 10 μg/ml to 0.15 μg/ml. Peptides were tested either directly or in the presence of a constant spiked-in dose of CTLA-4 Ig at 0.5 μg/ml. The plates were incubated at 37° C. in a humidified 5% CO2 atmosphere for 7 days.
Proliferation of the cells was determined by pulsing the wells with ^3H-Tdr (1 μCi/well) for the last 18 h of the assay. Plates were harvested using a Tomtec -late harvester and the counts incorporated determined using a Wallac microbetaplate plus reader.
A total of 34 peptides were tested for inhibition of lymphocyte proliferation in the human MLR. Each peptide was tested in a MLR at doses ranging from 12.5 to 100 μM. The activity of each peptide was identified by assigning a + and − tone peptide depending on its ability to inhibit lymphocyte proliferation in the MLR (cpms).

[2] = tested on: binding of CTLA-4Ig to B7 on Cess B cells; assay: CTLA-4Ig/B7 binding assay on Cess B cells by FACS; conditions: FACS; assays of 3/24, 3/25, 4/5, 4/25; one symbol per assay
Procedure: +++ was assigned if the peptide tested gave >50% change in cpm in a dose dependent fashion. In addition to the MLR, these 34 peptides were also evaluated in a CTLA-4Ig/B7 binding assay in which the ability of these peptides to affect the binding of CTLA-4Ig to B7 on Cess B cells was examined by FACS analysis.
As with the MLR, a + or − was assigned to each peptide depending on its ability to effect CTLA-4Ig binding to Cess B cells; where − represents no change in binding, + represents a minor change of <10% in binding, and a ++ represents a change of >20% in binding.

[3] = tested on: murine MLR splenocyte proliferation; assay: One-way murine MLR (C57Bl/6 stimulators, BalB/c responders); format: cell-based, mouse; conditions: peptides tested 100 μM to 1.56 μM (FIG. 9)
Procedure: One-way murine MLRs were set up using the C57Bl/6 mice splenocytes as stimulators and BalB/c splenocytes as responders.
Spleens were excised from mice (Jackson Laboratories, Bar Harbor, Ma.) 6-8 weeks of age. Cells were separated from the capsule using sterile frosted glass slides and washed in cold RPMI 1640 1×. Red blood cells were lysed by treating the spleen cell suspension with cold Tris ammonium chloride buffer (2 ml/spleen) for 3 min on ice. After lysis, the cells were washed 2× in 5 volumes of complete medium (RPMI 1640 containing 10 % heat-inactivated FBS, 2 mM glutamine, 50 μM 2-mercaptoethanol, 100 U/ml penicillin-100 μg/ml strepcomycin, 1 mM sodium pyruvate and 1 mM non-essential amino acids).
Plastic-adherent cells were removed from splenocytes of BalB/c mice by adjusting the cell concentration to 3×10^6 cells/ml in complete medium and incubating the cells for 1.5-2 h at 37° C. in T-75 flasks. Following incubation non-adherent cells were collected by gently washing the flasks and the percent recovery determined (60-70%). Bal b/C responder cells were stored on ice until mitomycin C treatment of stimulator cells was completed.
Following RBC lysis splenocytes of C57Bl/6 mice were adjusted to 2-4×10^6 cells/ml in complete medium and treated with mitomycin C (50 μg/ml) for 30 min at 37° C. in a humidified 5% CO2 in air atmosphere. Following treatment, cells were washed with 5 volumes of complete medium 3×, and viable counts determined using trypan blue.
To set up autologous stimulation controls some responder cells were also treated with mitomycin C as mentioned above.
For the assay, responder and stimulator cells were plated at 10^5 cells/well in 96-well round bottom plates. […]
Appropriate scrambled peptide controls and matrix controls were included in every assay. […] Proliferation of the cells was determined by pulsing the wells with 3H-Tdr (1 μCi/well) For the last 6 h of the assay. Plates were harvested and the counts incorporated determined as described above.

B7 on Cess B cells [4] = assay: FACS competition with CTLA-4Ig on Cess B cells; one grade per run; - no change, + <10% change, ++ >20% change
B7 on Cess B cells [5] = assay: cell-based or functional assay

RKCLGYPPPYYCHH (not fully specified (bridges); cysteine pairing not given here) [AT 201.1]
effect on the human MLR in combination with CTLA-4Ig [1]: no effect | inhibition of the MLR, in words ([1]; control and linear peptides compared with AT 199): did not inhibit any of the MLRs as much as AT 199 | Human MLR (ability to inhibit lymphocyte proliferation, cpm) [1]: −, −, − | Binding Assay (effect on CTLA-4Ig binding to Cess B cells) [2]: −, −, − | inhibition of the murine MLR [3]: 25%

AT 199.3: resynthesis of AT 199.1 using the original protocols without change (RKCLMYPPPYYCHH; disulfide 3-12 (inferred); not fully specified (C-terminus); also: disulfide cyclisation only partial, mixed cyclic and linear population)
inhibition of the human MLR ([1]; 100 μM, one MLR): 30% | effect on the human MLR in combination with CTLA-4Ig [1]: inhibited the MLR over and above CTLA-4Ig by itself | inhibition of the murine MLR [3]: 85%

CSSGNQVC (disulfide 1-8 (inferred)) [AT 132.1]
Human MLR (ability to inhibit lymphocyte proliferation, cpm) [1]: +, −, − | Binding Assay (effect on CTLA-4Ig binding to Cess B cells) [2]: +, −

CSPNQC (disulfide 1-6 (inferred); not fully specified (C-terminus)) [AT 135.1]
percent change in CTLA-4Ig binding to B7 on Cess B cells (FACS) (B7 on Cess B cells [4]): > 20%

RKCLMYPPPYYCHH (disulfide 3-12; not fully specified (C-terminus)) [AT 199.1]
apparent IC50 of inhibition in the MLR (B7 on Cess B cells [5]): 50 to 100 µM | inhibition of human MLR by batch AT 199.2A at 100 µM, one MLR (B7 on Cess B cells [5]): 50% | inhibition of human MLR by batch AT 199.2A, another MLR (B7 on Cess B cells [5]): 25% | inhibition of human MLR by batch AT 199.3 at 100 µM, one MLR (B7 on Cess B cells [5]): 30% | inhibition of lymphocyte proliferation in a human MLR (AT 199, doses up to 100 µM) (B7 on Cess B cells [5]): 70% | inhibition of lymphocyte proliferation in a second human MLR (AT 199, doses up to 100 µM) (B7 on Cess B cells [5]): 30%

CMYPPPYYRGGKC (disulfide 1-13 (inferred); not fully specified (C-terminus)) [AT 129.1]
percent change in CTLA-4Ig binding to B7 on Cess B cells (FACS) (B7 on Cess B cells [4]): > 20%

LDSAVEV-OH [AT 117.1]
percent change in CTLA-4Ig binding to B7 on Cess B cells (FACS) (B7 on Cess B cells [4]): < 10%

CRQADSQVTEC (disulfide 1-11 (inferred); not fully specified (C-terminus)) [AT 128.1]
percent change in CTLA-4Ig binding to B7 on Cess B cells (FACS) (B7 on Cess B cells [4]): < 10%

Source: patent US6337316B1, “Pharmaceutical compositions thereof, and methods of using same” (Applied Research Systems ARS Holding N.V., priority 1997, dated 2002)
